Laboratory results published in US10329302B2, “Bicyclic-fused heteroaryl or aryl compounds” (Pfizer Inc., priority 2014, dated 2019).

Experiments:
[1] = tested on: Female Lewis rats; experiment: In Vivo Rat Collagen-Induced Arthritis Model; conditions: for days on which hind paw swelling was significantly reduced (t-test, p<0.05 vs. vehicle): CIA Lewis rats, paw volume by plethysmograph
Experimental: In Vivo Rat Collagen-Induced Arthritis Model.
Efficacy of IRAK4 compounds of the present invention was also evaluated in a rat in vivo model of rheumatoid arthritis (M. Hegen, J. C. Keith, Jr, M. Collins, C. L. Nickerson-Nutter, Ann. Rheum. Dis. 2008, 67, 1505-1515). An exemplary protocol for this in vivo model follows.
Female Lewis rats, approximately 7 weeks old, were immunized with an emulsion of type II collagen (CII) and incomplete Freund's adjuvant (IFA) on day 0 and received a boost of CII/IFA on day 7. Hind paw volume increase was taken by plethysmograph. Animals were randomly enrolled into treatment groups based on the development of disease. Beginning on day 11 post immunization, rats were enrolled into random treatment groups based on an increase in a single hind paw volume compared to day 7 post immunization baseline measurements.
Ten rats were enrolled per treatment group with the exception of the naive control group, which contained two rats. Day 0 was designated as the first treatment day, and paw measurements are taken daily by plethysmograph. The rats were weighed on a daily basis.
IRAK4 inhibitors are efficacious in the Lewis rat model of collagen-induced arthritis.

[2] = tested on: serum TNF; experiment: In Vivo Mouse LPS/D-Gal Challenge Model; conditions: oral
Experimental: In Vivo Mouse LPS/D-Gal Challenge Model.
Efficacy of IRAK4 compounds of the present invention was also evaluated in an in vivo mouse model of endotoxin induced (Lipopolysaccharide (LPS)) inflammation. See: S. Copeland, H. W. Warren, S. F. Lowry, S. E. Calvano, and D. Remick, Clin. Diagn. Lab. Immnol. 2005, 12(1), 60-67. An exemplary protocol for this in vivo model follows.
Female C57/BL6 mice, 8 to 10 weeks old, are orally administered either vehicle or formulated IRAK-4 compound 1 hour prior to the challenge. Vehicle or IRAK4 compound is administered by oral gavage at a volume of 10 mL/kg. One hour post oral delivery of vehicle or compound, the animals are challenged with an intraperitoneal injection (IP) of a solution containing 1 μg/mL LPS and 80 mg/mL D-gal. Each mouse is injected with […] of the solution, for a final challenge dose of 100 ng LPS and 8 mg D-gal. Ninety minutes post LPS/D-gal challenge, animals are euthanized and blood collected. Blood is allowed to clot at room temperature and serum is separated by centrifugation and stored at −80° C. for analysis. Serum TNF and IL-6 are measured by Meso Scale Discovery (MSD) multiplex platform.
The groups consisted of N=10 animals/group. Naïve animals and vehicle control groups were run with each study. Mean cytokine data was plotted and students T-test was performed to calculate significance (t-test, p<0.05 vs. vehicle) of IRAK4 treated group vs. vehicle treated group. Percent inhibition of cytokine induction was calculated for IRAK4 treated group vs. vehicle treated group.
Table 4 contains data from multiple studies with columns for Compound, Dose in mg/kg (mpk) and % inhibition of serum TNF. In cases where doses of certain compounds were repeated in multiple experiments, the average percent inhibition of TNF and standard deviation is shown in the table.

[3] = tested on: R848-induced TNFα production by human peripheral blood mononuclear cells (PBMCs); experiment: R848 Induced TNFα in Human PBMC Assay; type: cell-based; conditions: Homo sapiens, PBMC, 3 h, read-out: R848-induced TNFa PBMC IC50 (nM)
[4] = target: human IRAK4 FL (Full Length) (Homo sapiens (Human), UniProt Q9NWZ3); experiment: IRAK4 Enzymatic DELFIA Assay, Protocol A; type: biochemical; conditions: human IRAK4 FL, 0.6 mM ATP (KM); read-out: IRAK4 DELFIA Protocol A IC50
human IRAK4 FL (Full Length), sequence (Q9NWZ3 whole entry, the tested form may be a part): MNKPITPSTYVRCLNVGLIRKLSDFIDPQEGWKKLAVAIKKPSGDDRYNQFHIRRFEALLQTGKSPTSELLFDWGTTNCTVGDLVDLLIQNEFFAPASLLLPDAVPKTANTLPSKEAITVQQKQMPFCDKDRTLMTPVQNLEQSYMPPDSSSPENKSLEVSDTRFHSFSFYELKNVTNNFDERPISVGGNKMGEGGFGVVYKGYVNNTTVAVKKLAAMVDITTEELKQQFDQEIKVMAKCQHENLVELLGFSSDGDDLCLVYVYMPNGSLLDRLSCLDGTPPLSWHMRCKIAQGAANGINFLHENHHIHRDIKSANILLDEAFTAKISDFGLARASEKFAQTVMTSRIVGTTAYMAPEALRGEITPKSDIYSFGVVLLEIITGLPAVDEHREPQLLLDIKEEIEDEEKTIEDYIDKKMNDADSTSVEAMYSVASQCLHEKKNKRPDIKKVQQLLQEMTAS

[5] = target: human IRAK4 kinase domain (aa 154-460) (Homo sapiens (Human), UniProt Q9NWZ3); experiment: IRAK4 Enzymatic DELFIA Assay, Protocol B; type: biochemical; conditions: human IRAK4 kinase domain (aa 154-460), 0.6 mM ATP (KM); read-out: IRAK4 DELFIA Protocol B IC50
human IRAK4 kinase domain (aa 154-460), sequence (Q9NWZ3 154-460): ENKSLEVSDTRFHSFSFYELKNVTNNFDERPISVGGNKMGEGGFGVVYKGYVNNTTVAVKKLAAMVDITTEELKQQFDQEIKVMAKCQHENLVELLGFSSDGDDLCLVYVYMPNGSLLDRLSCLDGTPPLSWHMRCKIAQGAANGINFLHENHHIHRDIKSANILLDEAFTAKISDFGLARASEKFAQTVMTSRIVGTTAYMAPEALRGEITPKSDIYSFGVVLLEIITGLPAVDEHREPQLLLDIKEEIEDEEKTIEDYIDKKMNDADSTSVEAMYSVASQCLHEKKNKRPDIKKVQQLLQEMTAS
Text: IRAK4 Enzymatic DELFIA Assay, Protocol B.

SMILES | IC50 [5] [nM] | other results
Cc1ccc(-n2nc(C(C)(C)C)cc2NC(=O)Nc2ccc(OCCN3CCOCC3)c3ccccc23)cc1 [BIRB796] |  | days on which hind paw swelling was significantly reduced (t-test, p<0.05 vs. vehicle) ([1]; 30 mg/kg PO, QD, positive control (p38 inhibitor)): Day 1-Day 8
CC(C)Oc1cc2c(OC[C@@H]3CCC(=O)N3)nccc2cc1C(N)=O [Example 26, 1-{[(2S)-5-oxopyrrolidin-2-yl]methoxy}-7-(propan-2-yloxy)isoquinoline-6-carboxamide] |  | hind paw swelling in CIA rats ([1]; 10 mg/kg PO, BID): transiently significant reduction in hind paw swelling only on Day 5 and Day 6 post treatment; days on which hind paw swelling was significantly reduced (t-test, p<0.05 vs. vehicle) ([1]; 30 mg/kg PO, BID, therapeutic treatment for 8 days): Day 2-Day 8; days on which hind paw swelling was significantly reduced (t-test, p<0.05 vs. vehicle) ([1]; 100 mg/kg PO, BID, therapeutic treatment for 8 days): Day 1-Day 8 (end); hind paw swelling in CIA rats ([1]; therapeutic treatment BID daily for 8 days, t-test p<0.05 vs. vehicle): reduced the hind paw swelling in CIA rats significantly; % inhib TNF ([2]; Dose 10 mpk): 27 (±19) %; % inhib TNF ([2]; Dose 30 mpk): 41 (±17) %; % inhib TNF ([2]; Dose 100 mpk): 78 (±23) %
CC(C)Oc1cc2c(OC[C@@H]3CCN3C(=O)CC#N)nccc2cc1C(N)=O [Example 73, 1-{[(2S)-1-(cyanoacetyl)azetidin-2-yl]methoxy}-7-(propan-2-yloxy)isoquinoline-6-carboxamide] | 1160 | IC50 [3]: 1590 nM; IC50 [4]: 4360 nM
CC(C)Oc1cc2c(OCC3CNC(=O)C3)nccc2cc1C(N)=O (centres unmarked) [Example 111, 1-[(5-oxopyrrolidin-3-yl)methoxy]-7-(propan-2-yloxy)isoquinoline-6-carboxamide] | 196 | 
CC(C)Oc1cc2c(OC[C@@H]3CCNC3)cccc2cc1C(N)=O [Example 115, 3-(propan-2-yloxy)-5-[(3R)-pyrrolidin-3-ylmethoxy]naphthalene-2-carboxamide] | 61 | 
CC(C)Oc1cc2c(OC[C@@H]3CCNC3)nccc2cc1C(N)=O [Example 117, 7-(propan-2-yloxy)-1-[(3R)-pyrrolidin-3-ylmethoxy]isoquinoline-6-carboxamide] | 136 | 
CC(C)Oc1cc2c(OC[C@@H]3CCN3)nccc2cc1C(N)=O [Example 119, 1-[(2S)-azetidin-2-ylmethoxy]-7-(propan-2-yloxy)isoquinoline-6-carboxamide] | 1430 | 
CC(C)Oc1cc2c(O[C@@H]3CC[C@H]4CC(=O)N[C@H]43)nccc2cc1C(N)=O [Example 130, 1-{[(3aS,6R,6aR)-2-oxooctahydrocyclopenta[b]pyrrol-6-yl]oxy}-7-(propan-2-yloxy)isoquinoline-6-carboxamide] | 417 | 
CC(C)Oc1cc2c(OCC3CCNC(=O)C3)nccc2cc1C(N)=O (centres unmarked) [Example 138, 1-[(2-oxopiperidin-4-yl)methoxy]-7-(propan-2-yloxy)isoquinoline-6-carboxamide] | 1040 | 
CC(C)Oc1cc2c(OC[C@]34CNC[C@H]3C4)nccc2cc1C(N)=O [Example 139, 1-[(1S,5S)-3-azabicyclo[3.1.0]hex-1-ylmethoxy]-7-(propan-2-yloxy)isoquinoline-6-carboxamide] | 256 | 
CC(C)Oc1cc2c(OC[C@@]34CNC[C@@H]3C4)nccc2cc1C(N)=O [Example 140, 1-[(1R,5R)-3-azabicyclo[3.1.0]hex-1-ylmethoxy]-7-(propan-2-yloxy)isoquinoline-6-carboxamide] | 84 | 
CC(C)Oc1cc2c(OC[C@@H]3CC(CO)C(=O)N3)nccc2cc1C(N)=O (stereo partly drawn) [Example 148, 1-{[(2S)-4-(hydroxymethyl)-5-oxopyrrolidin-2-yl]methoxy}-7-(propan-2-yloxy)isoquinoline-6-carboxamide] | 24 | 
CC(C)Oc1cc2c(OC[C@H]3COCCN3)nccc2cc1C(N)=O [Example 158, 1-[(3R)-morpholin-3-ylmethoxy]-7-(propan-2-yloxy)isoquinoline-6-carboxamide] | 1440 | 
CC(C)Oc1cc2c(OCC3CCCN3)nccc2cc1C(N)=O (centres unmarked) [Example 159, 7-(propan-2-yloxy)-1-(pyrrolidin-2-ylmethoxy)isoquinoline-6-carboxamide] | 3380 | 
CC(C)Oc1cc2c(OC[C@@H]3COCCN3)nccc2cc1C(N)=O [Example 160, 1-[(3S)-morpholin-3-ylmethoxy]-7-(propan-2-yloxy)isoquinoline-6-carboxamide] | 151 | 
CC(C)Oc1cc2c(OC[C@@]34CNCC[C@@H]3C4)nccc2cc1C(N)=O [Example 161, 1-[(1R,6S)-3-azabicyclo[4.1.0]hept-1-ylmethoxy]-7-(propan-2-yloxy)isoquinoline-6-carboxamide] | 88 | 
CC(C)Oc1cc2c(OC[C@]34CNCC[C@H]3C4)nccc2cc1C(N)=O [Example 162, 1-[(1S,6R)-3-azabicyclo[4.1.0]hept-1-ylmethoxy]-7-(propan-2-yloxy)isoquinoline-6-carboxamide] | 35 | 
CC(C)Oc1cc2c(OC[C@H]3NC(=O)[C@@H]4OC(C)(C)O[C@H]34)nccc2cc1C(N)=O [Example 167, 1-{[(3aR,4R,6aR)-2,2-dimethyl-6-oxotetrahydro-3aH-[1,3]dioxolo[4,5-c]pyrrol-4-yl]methoxy}-7-(propan-2-yloxy)isoquinoline-6-carboxamide] | 19 | 
COc1cc2c(OC[C@@H]3CCC(=O)N3)cccc2cc1C(N)=O [Example 173, 3-methoxy-5-{[(2S)-5-oxopyrrolidin-2-yl]methoxy}naphthalene-2-carboxamide] |  | % inhib TNF ([2]; Dose 30 mpk): 55%; % inhib TNF ([2]; Dose 100 mpk): 98%
CC(C)Oc1cc2c(OC[C@]34CNC(=O)[C@H]3C4)nccc2cc1C(N)=O [Example 175, 1-{[(1S,5S)-4-oxo-3-azabicyclo[3.1.0]hex-1-yl]methoxy}-7-(propan-2-yloxy)isoquinoline-6-carboxamide] | 101 | 
CC(C)Oc1cc2c(OC[C@@H]3C[C@](O)(CC(F)(F)F)C(=O)N3)nccc2cc1C(N)=O [Example 184, 1-{[(2S,4S)-4-hydroxy-5-oxo-4-(2,2,2-trifluoroethyl)pyrrolidin-2-yl]methoxy}-7-(propan-2-yloxy)isoquinoline-6-carboxamide] | 60 | 
COc1cc2c(OC[C@H]3NC(=O)[C@@H](F)[C@H]3C)nccc2cc1C(N)=O [Example 189, 1-{[(2S,3S,4S)-4-fluoro-3-methyl-5-oxopyrrolidin-2-yl]methoxy}-7-methoxyisoquinoline-6-carboxamide] |  | IC50 [3]: 12 nM; % inhib TNF ([2]; Dose 30 mpk): 40%
CC(C)Oc1cc2c(OCC3CCNC3)nccc2cc1C(N)=O (centres unmarked) [Example 191, 7-(propan-2-yloxy)-1-(pyrrolidin-3-ylmethoxy)isoquinoline-6-carboxamide] | 252 | 
COc1cc2c(OC[C@@H]3C[C@](C)(F)C(=O)N3)cccc2cc1C(N)=O [Example 194, 5-{[(2S,4S)-4-fluoro-4-methyl-5-oxopyrrolidin-2-yl]methoxy}-3-methoxynaphthalene-2-carboxamide] |  | IC50 [3]: 5.2 nM; IC50 [4]: 1 nM; % inhib TNF ([2]; Dose 30 mpk): 76%
COc1cc2c(OC[C@@H]3NC(=O)CC3(C)C)nccc2cc1C(N)=O [Example 222, 1-{[(2R)-3,3-dimethyl-5-oxopyrrolidin-2-yl]methoxy}-7-methoxyisoquinoline-6-carboxamide] | 1870 | 
CC(C)Oc1cc2c(OC[C@@H]3NC(=O)CC3(C)C)nccc2cc1C(N)=O [Example 223, 1-{[(2R)-3,3-dimethyl-5-oxopyrrolidin-2-yl]methoxy}-7-(propan-2-yloxy)isoquinoline-6-carboxamide] | 15 | 
